Results on two molecules are retold here after patent US20220332758A1, “PEPTIDE-BASED COMPOSITIONS AND METHODS FOR TREATING ALZHEIMER'S DISEASE” (Board of Regents, The Universityof Texas System, priority 2019, published 2022).

One data set can be described thus: Stability in human serum. In kind it is in vitro ADME.
Data set [1] addresses T1, α face pockets of the 20S core proteasome (Homo sapiens, UniProt P25787+P60900).
T1 construct: purified from erythrocytes; purchased Boston Biochem, Inc. or Enzo Life Sciences, Inc; host or cells: human erythrocytes
Put plainly: Competition of TAT peptides with Rpt C-terminal tail peptides for α face pockets (ChT-L activity of 20S). Format: biochemical. The conditions noted are these: for enhanced activation with Rpt tails: 1 μM Rpt peptide; for competition with Rpt tail peptides: 1 μM Rpt peptide added before the TAT peptide. The source says:
As mentioned herein, the binding pockets on the α face accept “anchors” from natural protein ligands of the 20S core. […] The 10-residue Rpt-derived C-terminal “tail” peptides (“Rpt peptides”) can be used as competitors with the Rpt subunits or with small allosteric ligands. Importantly, the Rpt peptides interject between the subunits with their C-termini, whereas TAT peptides, according to the modeling, use their N-termini for this purpose. To test the specificity of interactions between TAT compounds and the α face, competition experiments were performed. The 20S core was challenged with selected TAT compounds after treatment with Rpt peptides. Peptides of Rpt2 ([…]; SEQ ID NO: 10), Rpt3 ([…]; SEQ ID NO: 11), Rpt5 ([…]; SEQ ID NO: 12) and Rpt6 ([…]; SEQ ID NO: 13) subunits were selected, docking in α3/α4, α1/α2, α5/α6 and α2/α3 pockets, respectively. Tails of Rpt2, 3, and 5 display the canonical HbYX motif, whereas the LeuTrpLys C-terminus of Rpt6 may be considered “pseudo-HbYX”, with a bulky Trp replacing Tyr. Results of the competition experiments are presented as radar plots in FIG. 15. […] This pocket also emerged as the major binding site for (1) and (8). However, these compounds likely weakly competed with the Rpt2 tail for binding to the α3/α4 pocket as well. The α3/α4 pocket seemed to be favored by (6). […] These complex patterns point at the importance of allosteric effects between the α face ligands, the gate and the catalytic chamber.
Determination of Proteasome Activity. Human housekeeping core (20S) proteasome purified from erythrocytes was purchased from Boston Biochem, Inc. (Cambridge, Mass.) or from Enzo Life Sciences, Inc. (Farmingdale, N.Y.). Multiple batches of the proteasomes were used and performed reproducibly. The stock proteasome was diluted to 0.2 mg/mL working solution in “dilution buffer” (50 mM Tris/HCl, pH 8, 20% glycerol). The following model peptide substrates, releasing fluorescent 7-amino-4-methylcoumarin (AMC) reporter group after cleavage, were used: succinyl-LeuLeuValTyr-AMC (SEQ ID NO: 14) (for the ChT-L peptidase; SucLLVY-AMC; Bachem Bioscience Inc., Philadelphia, Pa.), butoxycarbonyl-LeuArgArg-AMC (T-L; Bachem Bioscience Inc., Philadelphia, Pa.) and carbobenzoxy-LeuLeuGlu-AMC (PGPH; Enzo Life Sciences Inc., Farmingdale, N.Y.). The substrates were used at concentration of 50 μM (ChT-L) or 100 μM (T-L, PGPH). Free AMC (Sigma-Aldrich, St. Louis, Mo.) was used as the standard. The C-terminal peptides derived from Rpt2, Rpt3, Rpt5 and Rpt6 were synthesized (standard solid-phase peptide chemistry) and purified to at least 98% purity by GenScript (Piscataway, N.J.). The TAT peptides, Rpt peptides (except Rpt6) and the peptide substrates were dissolved in anhydrous dimethylsulfoxide (DMSO; Sigma-Aldrich, St. Louis, Mo.) and such stock solutions were stored at −20° C. The total concentration of DMSO in final reaction mixtures never exceeded 3% (vol/vol). The Trp (tryptophan)-containing Rpt6 peptide was dissolved in ultrapure water and stored at −20° C., protected from light. The reaction was carried out in 96-well plates, in 100 μL of reaction mixture that consisted of 45 mM Tris/HCl, pH 8, 100 mM KCl, 1 mM EDTA (reaction buffer) and a fluorogenic peptide substrate, to which 200 ng (nearly […]) of proteasome were added. The addition of KCl/EDTA (ethylenediaminetetraacetic acid) to reaction buffer assured latency of the core proteasome. The proteasome was preincubated with a substrate for 10 min at room temperature, then 1 μL of DMSO or a desired concentration of a TAT peptide in 1 μL of DMSO were added. After mixing, the plate was transferred to a Fluoroskan Ascent plate reader (Thermo Fisher Scientific Inc., Waltham, Mass.) for 1 h (37° C.), with fluorescence readouts once per minute. To test the competition with Rpt derived peptides, the Rpt peptide (1 μM) was added before the TAT peptide to the reaction mixture. […]

The target in a further data set is T2, human 26S proteasome (Homo sapiens, UniProt P25787+P60900).
T2 construct: purchased Boston Biochemicals (Boston Biochem)
Description: Chymotrypsin-like activity of purified human 26S proteasome, Suc-LLVY-MCA substrate. In kind it is biochemical. The conditions noted are these: in vitro.

Entries after “also recorded” stand apart in the source; their conditions may differ.

In general, half-life refers to the time in which the quantity being followed falls by half.

Regarding `N=C(N)NCCCC(NC(=O)CN)C(=O)NC(CCCCN)C(=O)NC(CCCCN)C(=O)NC(CCCNC(=N)N)C(=O)NC(CCCNC(=N)N)C(=O)NC(CCC(N)=O)C(=O)N1Cc2ccccc2C[C@H]1C(=O)N1C(C(=O)NC(CCCNC(N)N)C(=O)N2CCCC2C(=O)NC(CO)C(=O)O)CC2CCCCC21` (some centres unmarked) [(5), GRKKRRQ-TOD-RPS], in the data set “Stability in human serum”, the half-life is roughly 2 h. For the same molecule, in data set [1], the “enhanced activation with Rpt tails” value is “enhanced activation in the presence of one of Rpt tails, namely Rpt5 or Rpt6” and the “competition with Rpt tail peptides” value is “the Rpt3 peptide (α1/α2 pocket) was its sole competitor; also recorded: competed fairly specifically with Rpt3 tail”. The “activation of 26S proteasome (in words)” value at human 26S proteasome is “strongly activate”.
Turning to `NCCCCC(N)C(=O)NC(CCCCN)C(=O)NC(CCCCN)C(=O)Nc1cc(NC(=O)C(CCCCN)NC(=O)C(CCCCN)NC(=O)C(N)CCCCN)cc(C(=O)NC(CCCCN)C(=O)NC(CCCCN)C(=O)NC(CCCCN)C(=O)O)c1` (centres unmarked) [(8)], the “stability in serum (in words)” value in the data set “Stability in human serum” is on record as “rapidly modified from triple-lysines to double-lysines”. Moreover, in data set [1], the “enhanced activation with Rpt tails” value is reported as “enhanced activation in the presence of one of Rpt tails, namely Rpt5 or Rpt6” and the “competition with Rpt tail peptides” value is “weakly negative score for the Rpt2 tail to the presumed major competitor Rpt3”. In addition, the “activation of 26S proteasome (in words)” value on human 26S proteasome was “excellent activator”.
